Source: ChEMBL document CHEMBL4339249, “Antimicrobial Dolabellanes and Atranones from a Marine-Derived Strain of the Toxigenic Fungus Stachybotrys chartarum” (2019)
The source made the active and inactive calls. The rule behind the calls is not given here.

How the values were obtained:
Enterococcus faecalis = test: Antimicrobial activity against Enterococcus faecalis ATCC 29212 assessed as inhibition of microbial growth incubated for 16 hrs by broth microdilution method; assay type: functional; details: ATCC 29212, 16 h
Pseudomonas aeruginosa = test: Antimicrobial activity against Pseudomonas aeruginosa ATCC 15442 assessed as inhibition of microbial growth incubated for 16 hrs by broth microdilution method; assay type: functional; details: ATCC 15442, 16 h
Staphylococcus aureus = test: Antimicrobial activity against methicillin-resistant Staphylococcus aureus ATCC 43300 assessed as inhibition of microbial growth incubated for 16 hrs by broth microdilution method; assay type: functional; details: ATCC 43300, 16 h
Klebsiella pneumoniae = test: Antimicrobial activity against Klebsiella pneumoniae ATCC 700603 assessed as inhibition of microbial growth incubated for 16 hrs by broth microdilution method; assay type: functional; details: Klebsiella pneumoniae, 700603, 16 h
Acinetobacter baumannii = test: Antimicrobial activity against Acinetobacter baumannii ATCC 19606 assessed as inhibition of microbial growth incubated for 16 hrs by broth microdilution method; assay type: functional; details: ATCC 19606, 16 h
Escherichia coli = test: Antimicrobial activity against ESBL-producing Escherichia coli ATCC 35218 assessed as inhibition of microbial growth incubated for 16 hrs by broth microdilution method; assay type: functional; details: ATCC 35218, 16 h
Candida albicans [1] = test: Antimicrobial activity against Candida albicans ATCC 10231 assessed as inhibition of microbial growth incubated for 16 hrs by broth microdilution method; assay type: functional; details: ATCC 10231, 16 h
Candida albicans [2] = test: Induction of morphological changes in Candida albicans ATCC 10231 assessed as induction of vacuoles formation in cytoplasm at 16 ug/ml incubated for 12 hrs by transmission electron microscopy; assay type: functional, organism-based
Candida albicans [3] = test: Induction of morphological changes in Candida albicans ATCC 10231 assessed as induction of wrinkled cells at 8 ug/ml incubated for 12 hrs by transmission electron microscopy; assay type: functional, organism-based
Candida albicans [4] = test: Induction of morphological changes in Candida albicans ATCC 10231 assessed as induction of cell membrane deformation at 16 ug/ml incubated for 12 hrs by transmission electron microscopy; assay type: functional, organism-based
Candida albicans [5] = test: Induction of morphological changes in Candida albicans ATCC 10231 assessed as induction of cell wall deformation at 16 ug/ml incubated for 12 hrs by transmission electron microscopy; assay type: functional, organism-based
Candida albicans [6] = test: Induction of morphological changes in Candida albicans ATCC 10231 assessed as induction of deformed cells at 8 ug/ml incubated for 12 hrs by transmission electron microscopy; assay type: functional, organism-based
Candida albicans [7] = test: Induction of morphological changes in Candida albicans ATCC 10231 assessed as induction of irregular cell shape at 8 ug/ml incubated for 12 hrs by transmission electron microscopy; assay type: functional, organism-based
Candida albicans [8] = test: Induction of morphological changes in Candida albicans ATCC 10231 assessed as induction of cell wall thinning at 8 ug/ml incubated for 12 hrs by transmission electron microscopy; assay type: functional, organism-based
Candida albicans [9] = test: Induction of morphological changes in Candida albicans ATCC 10231 assessed as induction of cell contents leakage at 16 ug/ml incubated for 12 hrs by transmission electron microscopy; assay type: functional, organism-based
Candida albicans [10] = test: Induction of morphological changes in Candida albicans ATCC 10231 assessed as induction of agglutination in cytoplasm at 8 ug/ml incubated for 12 hrs by transmission electron microscopy; assay type: functional, organism-based

| SMILES | MIC (Enterococcus faecalis) [mg/L] | MIC (Pseudomonas aeruginosa) [mg/L] | MIC (Staphylococcus aureus) [mg/L] | MIC (Klebsiella pneumoniae) [mg/L] | MIC (Acinetobacter baumannii) [mg/L] | MIC (Escherichia coli) [mg/L] | MIC (Candida albicans [1]) [mg/L] | Activity (Candida albicans [2]) | Activity (Candida albicans [3]) | Activity (Candida albicans [4]) | Activity (Candida albicans [5]) | Activity (Candida albicans [6]) | Activity (Candida albicans [7]) | Activity (Candida albicans [8]) | Activity (Candida albicans [9]) | Activity (Candida albicans [10]) |
| --- | --- | --- | --- | --- | --- | --- | --- | --- | --- | --- | --- | --- | --- | --- | --- | --- |
| COC(=O)[C@H]1[C@H](C)O[C@@]2(O)[C@H](C)CC[C@@]3(C)OC(=O)C=C(C(C)C)[C@@H]3C[C@H](O)/C(C)=C/[C@H]12 | ≥ 100 | ≥ 100 | ≥ 100 | ≥ 100 | ≥ 100 | ≥ 100 | ≥ 100 | – | – | – | – | – | – | – | – | – |
| C/C1=C\[C@H]2/C(=C(/C)CC[C@@]3(CO)C(=O)C=C(C(C)C)[C@@H]3CC1)OC(=O)[C@@H]2[C@H](C)O | ≥ 100 | ≥ 100 | ≥ 100 | ≥ 100 | ≥ 100 | ≥ 100 | ≥ 100 | – | – | – | – | – | – | – | – | – |
| C/C1=C\[C@H](O)C[C@]2(C)O[C@H]2C[C@@]2(C)C(=O)C=C(C(C)C)[C@@H]2CC1 | ≥ 100 | ≥ 100 | ≥ 100 | ≥ 100 | ≥ 100 | ≥ 100 | ≥ 100 | – | – | – | – | – | – | – | – | – |
| CO/N=C(\C(=O)N[C@@H]1C(=O)N2C(C(=O)O)=C(CSc3nc(=O)c(O)nn3C)CS[C@H]12)c1csc(N)n1 [CEFTRIAXONE] | – | 2 | – | 2 | 8 | 8 | – | – | – | – | – | – | – | – | – | – |
| NCC[C@H](O)C(=O)N[C@@H]1C[C@H](N)[C@@H](O[C@H]2O[C@H](CN)[C@@H](O)[C@H](O)[C@H]2O)[C@H](O)[C@H]1O[C@H]1O[C@H](CO)[C@@H](O)[C@H](N)[C@H]1O [AMIKACIN] | – | 2 | – | 8 | 2 | 4 | – | – | – | – | – | – | – | – | – | – |
| OC(Cn1cncn1)(Cn1cncn1)c1ccc(F)cc1F [FLUCONAZOLE] | – | – | – | – | – | – | 1 | – | – | – | – | – | – | – | – | – |
| C/C1=C\[C@H](O)C[C@]2(C)O[C@H]2C[C@@]2(C)OC(=O)C=C(C(C)C)[C@@H]2CC1 | ≥ 32 | ≥ 100 | ≥ 100 | ≥ 100 | 16 | ≥ 100 | ≥ 100 | – | – | – | – | – | – | – | – | – |
| CC(=O)C[C@H]1/C=C(\C)[C@@H](O)C[C@H]2C(C(C)C)=CC(=O)O[C@]2(C)CC[C@@H](C)C1=O | 16 | ≥ 100 | 32 | ≥ 100 | ≥ 100 | ≥ 100 | 8 | Active | Active | Active | Active | Active | Active | Active | Active | Active |
| CN[C@H](CC(C)C)C(=O)N[C@H]1C(=O)N[C@@H](CC(N)=O)C(=O)N[C@H]2C(=O)N[C@H]3C(=O)N[C@H](C(=O)N[C@H](C(=O)O)c4cc(O)cc(O)c4-c4cc3ccc4O)[C@H](O)c3ccc(c(Cl)c3)Oc3cc2cc(c3O[C@@H]2O[C@H](CO)[C@@H](O)[C@H](O)[C@H]2O[C@H]2C[C@](C)(N)[C@H](O)[C@H](C)O2)Oc2ccc(cc2Cl)[C@H]1O [VANCOMYCIN] | 0.5 | – | – | – | – | – | – | – | – | – | – | – | – | – | – | – |
| C/C1=C\[C@H](O)[C@H](O)C/C(C)=C/[C@@]2(C)OC(=O)C=C(C(C)C)[C@@H]2CC1 | ≥ 100 | ≥ 100 | ≥ 100 | ≥ 100 | ≥ 100 | ≥ 100 | ≥ 100 | – | – | – | – | – | – | – | – | – |
